Reference: PMC8480901 (PLoS ONE, 2021)
Where “and” joins values, the source holds several entries; their conditions need not be identical. Equal entries are not always repeated.

System: J774.2 mouse macrophages
Test: LPS-induced cytokine and chemokine levels in J774.2 mouse macrophage cell supernatant (ELISA)
Format: cell-based
Conditions: for CXCL1 % reduction / CXCL1 [pg/mL] Mean / CXCL2 % reduction / CXCL2 [pg/mL] Mean / MMP9 % reduction / MMP9 [pg/mL] Mean / CXCL2 / MMP9: J774.2 cells; for CXCL1 % reduction / CXCL1 [pg/mL] Mean / CXCL2 % reduction / CXCL2 [pg/mL] Mean / MMP9 % reduction / MMP9 [pg/mL] Mean / CCl2, % reduction / CCl2, Mean / IL-1β % reduction / IL-6 % reduction / TNF-α % reduction / TNF-α Mean / CCl2 / CXCL1 / TNF-α / CXCL2 / MMP9: LPS; for CCl2, % reduction / CCl2, Mean / IL-1β % reduction / IL-6 % reduction / TNF-α % reduction / TNF-α Mean / CCl2 / CXCL1 / TNF-α: J774.2 supernatant; for CCl2 / CXCL1 / TNF-α / CXCL2 / MMP9: individual replicate

`C[C@@H]1C[C@H]2[C@@H]3CCC4=CC(=O)C=C[C@]4(C)[C@@]3(F)[C@@H](O)C[C@]2(C)[C@@]1(O)C(=O)CO` [Dexamethasone] was tested, and the CXCL1 % reduction (compound 0.0003 µM) was -75%, the “CXCL1 [pg/mL] Mean” value (compound 0.0003 µM) was 45 pg/mL and the CXCL2 % reduction (compound 0.0003 µM) was 24%. For the same compound, the “CXCL2 [pg/mL] Mean” value (compound 0.0003 µM) was 24934 pg/mL, the MMP9 % reduction (compound 0.0003 µM) was 2.49% and the “MMP9 [pg/mL] Mean” value (compound 0.0003 µM) was 941 pg/mL. For the same compound, the CXCL1 % reduction (compound 0.001 µM) was -60%, the “CXCL1 [pg/mL] Mean” value (compound 0.001 µM) was 41 pg/mL and the CXCL2 % reduction (compound 0.001 µM) was 22%. The “CXCL2 [pg/mL] Mean” value (compound 0.001 µM) was 25589 pg/mL, the MMP9 % reduction (compound 0.001 µM) was -3.26% and the “MMP9 [pg/mL] Mean” value (compound 0.001 µM) was 993 pg/mL. The CXCL1 % reduction (compound 0.003 µM) was -60%, the “CXCL1 [pg/mL] Mean” value (compound 0.003 µM) was 41 pg/mL and the CXCL2 % reduction (compound 0.003 µM) was 22%. The “CXCL2 [pg/mL] Mean” value (compound 0.003 µM) was 25475 pg/mL, the MMP9 % reduction (compound 0.003 µM) was 0.402% and the “MMP9 [pg/mL] Mean” value (compound 0.003 µM) was 960 pg/mL. For the same compound, the CXCL1 % reduction (compound 0.01 µM) was -89%, the “CXCL1 [pg/mL] Mean” value (compound 0.01 µM) was 48 pg/mL and the CXCL2 % reduction (compound 0.01 µM) was 23%. The “CXCL2 [pg/mL] Mean” value (compound 0.01 µM) was 24995 pg/mL, the MMP9 % reduction (compound 0.01 µM) was -17% and the “MMP9 [pg/mL] Mean” value (compound 0.01 µM) was 1120 pg/mL. The “CXCL1 [pg/mL] Mean” value (compound 0.03 µM) was 66 pg/mL, the CXCL2 % reduction (compound 0.03 µM) was 17% and the “CXCL2 [pg/mL] Mean” value (compound 0.03 µM) was 26915 pg/mL. For the same compound, the MMP9 % reduction (compound 0.03 µM) was -7%, the “MMP9 [pg/mL] Mean” value (compound 0.03 µM) was 1030 pg/mL and the CXCL1 % reduction (compound 0.1 µM) was -158%. The “CXCL1 [pg/mL] Mean” value (compound 0.1 µM) was 66 pg/mL, the CXCL2 % reduction (compound 0.1 µM) was 23% and the “CXCL2 [pg/mL] Mean” value (compound 0.1 µM) was 25079 pg/mL. The MMP9 % reduction (compound 0.1 µM) was -12%, the “MMP9 [pg/mL] Mean” value (compound 0.1 µM) was 1071 pg/mL and the CXCL1 % reduction (compound 0.3 µM) was -170%. The “CXCL1 [pg/mL] Mean” value (compound 0.3 µM) was 69 pg/mL, the CXCL2 % reduction (compound 0.3 µM) was 24% and the “CXCL2 [pg/mL] Mean” value (compound 0.3 µM) was 24836 pg/mL. The MMP9 % reduction (compound 0.3 µM) was 4.75%, the “MMP9 [pg/mL] Mean” value (compound 0.3 µM) was 921 pg/mL and the CXCL1 % reduction (compound 1 µM) was -156%. The “CXCL1 [pg/mL] Mean” value (compound 1 µM) was 66 pg/mL, the CXCL2 % reduction (compound 1 µM) was 21% and the “CXCL2 [pg/mL] Mean” value (compound 1 µM) was 25750 pg/mL. The MMP9 % reduction (compound 1 µM) was -12%, the “MMP9 [pg/mL] Mean” value (compound 1 µM) was 1077 pg/mL and the “LPS-induced TNF-α, IL-6, and IL-1β in supernatant” value (J774.2 mouse macrophages, 0.0003-1 µM) was “dose-dependent reductions”. For the same compound, the CCl2, % reduction (0.0003 µM) was 30%, the “CCl2, Mean” value (0.0003 µM) was 25543 pg/mL and the IL-1β % reduction (0.0003 µM) was -32%. For the same compound, the IL-6 % reduction (0.0003 µM) was -12%, the TNF-α % reduction (0.0003 µM) was -6.59% and the “TNF-α Mean” value (0.0003 µM) was 1457 pg/mL. For the same compound, the CCl2 (0.0003 µM) was 25420.3 pg/mL and 25666.2 pg/mL, the CXCL1 (0.0003 µM) was 47.7 pg/mL and 41.8 pg/mL and the TNF-α (0.0003 µM) was 1400.2 pg/mL and 1513.9 pg/mL. The CCl2, % reduction (0.001 µM) was 27%, the “CCl2, Mean” value (0.001 µM) was 26540 pg/mL and the IL-1β % reduction (0.001 µM) was -9%. For the same compound, the IL-6 % reduction (0.001 µM) was 2.11%, the “TNF-α Mean” value (0.001 µM) was 1347 pg/mL and the CCl2 (0.001 µM) was 25719.1 pg/mL and 27360.7 pg/mL. For the same compound, the CXCL1 (0.001 µM) was 36.1 pg/mL and 45.9 pg/mL, the TNF-α (0.001 µM) was 1307.1 pg/mL and 1387.6 pg/mL and the CCl2, % reduction (0.003 µM) was 17%. For the same compound, the “CCl2, Mean” value (0.003 µM) was 29971 pg/mL, the IL-1β % reduction (0.003 µM) was 20% and the IL-6 % reduction (0.003 µM) was -10%. The TNF-α % reduction (0.003 µM) was 9%, the “TNF-α Mean” value (0.003 µM) was 1248 pg/mL and the CCl2 (0.003 µM) was 29318.9 pg/mL and 30622.8 pg/mL. For the same compound, the CXCL1 (0.003 µM) was 44.3 pg/mL and 37.5 pg/mL, the TNF-α (0.003 µM) was 1276.5 pg/mL and 1220.4 pg/mL and the CCl2, % reduction (0.01 µM) was 11%. For the same compound, the “CCl2, Mean” value (0.01 µM) was 32289 pg/mL, the IL-1β % reduction (0.01 µM) was 44% and the IL-6 % reduction (0.01 µM) was 16%. For the same compound, the TNF-α % reduction (0.01 µM) was 16%, the “TNF-α Mean” value (0.01 µM) was 1149 pg/mL and the CCl2 (0.01 µM) was 33314.7 pg/mL and 31263.9 pg/mL. For the same compound, the CXCL1 (0.01 µM) was 53.3 pg/mL and 43.3 pg/mL, the TNF-α (0.01 µM) was 1202.6 pg/mL and 1095.5 pg/mL and the CCl2, % reduction (0.03 µM) was -11%. The “CCl2, Mean” value (0.03 µM) was 39841 pg/mL, the IL-1β % reduction (0.03 µM) was 63% and the IL-6 % reduction (0.03 µM) was 40%. For the same compound, the TNF-α % reduction (0.03 µM) was 30%, the “TNF-α Mean” value (0.03 µM) was 960 pg/mL and the CCl2 (0.03 µM) was 43664.9 pg/mL and 36017.7 pg/mL. For the same compound, the CXCL1 (0.03 µM) was 62.3 pg/mL and 70.1 pg/mL, the TNF-α (0.03 µM) was 997.7 pg/mL and 922.4 pg/mL and the CCl2, % reduction (0.1 µM) was -6%. For the same compound, the “CCl2, Mean” value (0.1 µM) was 38142 pg/mL, the IL-1β % reduction (0.1 µM) was 69% and the IL-6 % reduction (0.1 µM) was 54%. The TNF-α % reduction (0.1 µM) was 37%, the “TNF-α Mean” value (0.1 µM) was 868 pg/mL and the CCl2 (0.1 µM) was 39902.2 pg/mL and 36382.1 pg/mL. The CXCL1 (0.1 µM) was 70.5 pg/mL and 61.8 pg/mL, the TNF-α (0.1 µM) was 957.1 pg/mL and 779.4 pg/mL and the CCl2, % reduction (0.3 µM) was 15%. For the same compound, the “CCl2, Mean” value (0.3 µM) was 30843 pg/mL, the IL-1β % reduction (0.3 µM) was 75% and the IL-6 % reduction (0.3 µM) was 57%. For the same compound, the TNF-α % reduction (0.3 µM) was 49%, the “TNF-α Mean” value (0.3 µM) was 706 pg/mL and the CCl2 (0.3 µM) was 33366.7 pg/mL and 28320.1 pg/mL. For the same compound, the CXCL1 (0.3 µM) was 70.8 pg/mL and 67.4 pg/mL, the TNF-α (0.3 µM) was 780.3 pg/mL and 630.8 pg/mL and the CCl2, % reduction (1 µM) was 14%. For the same compound, the “CCl2, Mean” value (1 µM) was 31213 pg/mL, the IL-1β % reduction (1 µM) was 76% and the IL-6 % reduction (1 µM) was 58%. The TNF-α % reduction (1 µM) was 52%, the “TNF-α Mean” value (1 µM) was 671 pg/mL and the CCl2 (1 µM) was 32973.4 pg/mL and 29452.4 pg/mL. The CXCL1 (1 µM) was 65.4 pg/mL and 65.8 pg/mL, the TNF-α (1 µM) was 708.1 pg/mL and 633.8 pg/mL and the “CXCL2” value (compound 0.0003 µM) was 24204.6 pg/mL and 25664.1 pg/mL. The “MMP9” value (compound 0.0003 µM) was 875.528 pg/mL and 1006.68 pg/mL, the “CXCL2” value (compound 0.001 µM) was 24896.6 pg/mL and 26281.1 pg/mL and the “MMP9” value (compound 0.001 µM) was 908.955 pg/mL and 1077.76 pg/mL. The “CXCL2” value (compound 0.003 µM) was 26063.4 pg/mL and 24885.7 pg/mL, the “MMP9” value (compound 0.003 µM) was 895.348 pg/mL and 1024.81 pg/mL and the “CXCL2” value (compound 0.01 µM) was 24945.6 pg/mL and 25043.7 pg/mL. For the same compound, the “MMP9” value (compound 0.01 µM) was 1078.2 pg/mL and 1162.43 pg/mL, the “CXCL2” value (compound 0.03 µM) was 28314.6 pg/mL and 25515.2 pg/mL and the “MMP9” value (compound 0.03 µM) was 1067.94 pg/mL and 991.656 pg/mL. The “CXCL2” value (compound 0.1 µM) was 25553.8 pg/mL and 24603.6 pg/mL, the “MMP9” value (compound 0.1 µM) was 1150.63 pg/mL and 991.656 pg/mL and the “CXCL2” value (compound 0.3 µM) was 25702.8 pg/mL and 23968.8 pg/mL. The “MMP9” value (compound 0.3 µM) was 877.422 pg/mL and 963.71 pg/mL, the “CXCL2” value (compound 1 µM) was 26832.3 pg/mL and 24668.5 pg/mL and the “MMP9” value (compound 1 µM) was 1055.41 pg/mL and 1099.09 pg/mL.
